These results are taken from patent US9388162B2, “Substituted morphinans and the use thereof” (Purdue Pharma L.P., priority 2012, dated 2016).

SMILES strings stand for the structures. A value given as a limit tells only on which side of the number the result lay.

Common to all, as to type: biochemical
For experiment [1], the target named is T1, μ-opioid receptors (Homo sapiens (Human), UniProt P35372). Put plainly: μ-opioid receptor [35S]GTPγS functional assay, HEK-293 cells. Conditions: μ GTP; for EC50: read-out: Activity Response μ EC50 (nM) [mean ± SEM]; for Emax: relative to DAMGO, read-out: Activity Response μ Emax (%). As for the experimental part: (§1) [^35S]GTPγS functional assays were conducted using freshly thawed μ-receptor membranes prepared from a cell line expressing recombinant μ opioid receptor in a HEK-293, CHO or U-2 OS cell background or purchased from a commercial source (Perkin Elmer, Shelton, Conn.; or DiscovRx, Fremont, Calif.). Assay reactions were prepared by sequentially adding the following reagents to binding buffer (100 mM NaCl, 10 mM MgCl2, 20 mM HEPES, pH 7.4) on ice (final concentrations indicated): membrane protein (0.026 mg/mL), saponin ([…]), GDP ([…]) and [^35S]GTPγS (0.20 nM; Perkin Elmer, Shelton, Conn.). The prepared membrane solution (190 μl/well) was transferred to 96-shallow well polypropylene plates containing 10 μl of 20× concentrated stock solutions of the agonist [D-Ala^2, N-methyl-Phe^4 Gly-ol^5]-enkephalin (DAMGO) prepared in dimethyl sulfoxide (DMSO). Plates were incubated for 30 min at about 25° C. with shaking. Reactions were terminated by rapid filtration onto 96-well Unifilter GF/B filter plates (Perkin Elmer, Shelton, Conn.) using a 96-well tissue harvester (Perkin Elmer, Shelton, Conn.) followed by three filtration washes with 200 μl of ice-cold wash buffer (10 mM NaH2PO4, 10 mM Na2HPO4, pH 7.4). Filter plates were subsequently dried at 50° C. for 2-3 hours. BetaScint scintillation cocktail (Perkin Elmer, Shelton, Conn.) was added (50 μl/well) and plates were counted using a Packard Top-Count for 1 min/well. Data were analyzed using the sigmoidal dose-response curve fitting functions in GraphPad PRISM v. 3.0, or an in-house function for non-linear, sigmoidal dose-response curve-fitting.
(§2) μ GTP EC50 is the concentration of a compound providing 50% of the maximal response for the compound at a μ-opioid receptor.
(§3) μ GTP Emax (%) is the maximal effect elicited by a compound relative to the effect elicited by DAMGO, a standard μ agonist. Generally, the μ GTP Emax (%) value measures the efficacy of a compound to treat or prevent pain or other Conditions.
(§4) The following tables provide results on the efficacy of binding and activity response of exemplified Compounds of the Invention at the μ- and κ-opioid receptors. In TABLE 3, binding affinity of certain Compounds of the Invention to the μ- and κ-opioid receptors was determined as described above. In TABLE 4, activity response of certain Compounds of the Invention to the μ- and κ-opioid receptors was determined as described above for functional assays using HEK-293 cells. In TABLE 5, activity response of certain Compounds of the Invention to the μ- and κ-opioid receptors was determined as described above using U-2 OS cells.
(In general: GTPγS resists hydrolysis and so accumulates on activated G proteins.)

For experiment [2], the target named is T1, μ-opioid receptors. Put plainly: μ-opioid receptor [35S]GTPγS functional assay, U-2 OS cells. Conditions: μ GTP; for EC50: read-out: Activity Response μ EC50 (nM) [mean ± SEM]; for Emax: read-out: Activity Response μ Emax (%). The protocol:
as §1, §2, §3, §4

The target in experiment [3] is κ opioid receptor (Homo sapiens (Human), UniProt P41145). Put plainly: κ-opioid receptor [35S]GTPγS functional assay, U-2 OS cells. Conditions: κ GTP; for EC50: read-out: Activity Response κ EC50 (nM) [mean ± SEM]; for Emax: relative to U69,593, read-out: Activity Response κ Emax (%). As for the experimental part: Membranes from HEK-293 cells, CHO or U-2 OS cells expressing the recombinant human kappa opioid receptor (κ) were prepared by lysing cells in ice cold hypotonic buffer (2.5 mM MgCl2, 50 mM HEPES, pH 7.4) (10 mL/10 cm dish) followed by homogenization with a tissue grinder/Teflon pestle. Membranes were collected by centrifugation at 30,000×g for 15 min at 4° C. and pellets were resuspended in hypotonic buffer to a final concentration of 1-3 mg/mL. Protein concentrations were determined using the BioRad protein assay reagent with bovine serum albumen as standard. Aliquots of κ receptor membranes were stored at −80° C.
Functional [^35S]GTPγS binding assays were conducted as follows. κ opioid receptor membrane solution was prepared by sequentially adding final concentrations of 0.026 μg/μl κ membrane protein (in-house), 10 μg/mL saponin, 3 μM GDP and 0.20 nM [^35S]GTPγS to binding buffer (100 mM NaCl, 10 mM MgCl2, 20 mM HEPES, pH 7.4) on ice. The prepared membrane solution (190 μl/well) was transferred to 96-shallow well polypropylene plates containing 10 μl of 20× concentrated stock solutions of agonist prepared in DMSO. Plates were incubated for 30 min at a temperature of about 25° C. with shaking. Reactions were terminated by rapid filtration onto 96-well Unifilter GF/B filter plates (Perkin Elmer, Shelton, Conn.) using a 96-well tissue harvester (Packard) and followed by three filtration washes with 200 μl ice-cold binding buffer (10 mM NaH2PO4, 10 mM Na2HPO4, pH 7.4). Filter plates were subsequently dried at 50° C. for 2-3 hours. Fifty μl/well scintillation cocktail (Perkin Elmer, Shelton, Conn.) was added and plates were counted in a Packard Top-Count for 1 min/well.
κ GTP EC50 is the concentration of a compound providing 50% of the maximal response for the compound at a κ receptor.
κ GTP Emax (%) is the maximal effect elicited by a compound relative to the effect elicited by U69,593.
In TABLE 3, binding affinity of certain Compounds of the Invention to the μ- and κ-opioid receptors was determined as described above. In TABLE 4, activity response of certain Compounds of the Invention to the μ- and κ-opioid receptors was determined as described above for functional assays using HEK-293 cells. In TABLE 5, activity response of certain Compounds of the Invention to the μ- and κ-opioid receptors was determined as described above using U-2 OS cells.

As usually defined, the EC50 is the concentration that produces a half-maximal response. As a reminder, the Emax is the size of the effect at its maximum, as opposed to the concentration needed. For the compound `CN1CC[C@]23CC(=O)[C@@H](CC(=O)NCC4CC4)C[C@@]2(O)[C@H]1Cc1ccc(O)cc13` [Compound 84, N-(cyclopropylmethyl)-2-((4bR,7R,8aS,9R)-3,8a-dihydroxy-11-methyl-6-oxo-6,7,8,8a,9,10-hexahydro-5H-9,4b-(epiminoethano)phenanthren-7-yl)acetamide], in experiment [1], the EC50 worked out at 1260 ± 301 nM and the Emax was 57.7 ± 2.73%.
For `CCS(=O)(=O)N[C@H]1C[C@@]2(O)[C@H]3Cc4ccc(O)cc4[C@@]2(CCN3CC2CC2)CC1=O` [Compound 42, N-((4bR,7S,8aS,9R)-11-(cyclopropylmethyl)-3,8a-dihydroxy-6-oxo-6,7,8,8a,9,10-hexahydro-5H-9,4b-(epiminoethano)phenanthren-7-yl)ethanesulfonamide] the same measures were above 200000 nM and 5.5%.
In the case of `CN1CC[C@]23CC(=O)[C@@H](CC(=O)NCc4ccccc4)C[C@@]2(O)[C@H]1Cc1ccc(O)cc13` [Compound 83, N-benzyl-2-((4bR,7R,8aS,9R)-3,8a-dihydroxy-11-methyl-6-oxo-6,7,8,8a,9,10-hexahydro-5H-9,4b-(epiminoethano)phenanthren-7-yl)acetamide], in experiment [1], the EC50 is 456 ± 36.7 nM and the Emax worked out at 75 ± 5.51%.
Taken in the same sequence, the figures for `O=C1C[C@]23CCN(CC4CC4)[C@H](Cc4ccc(O)cc42)[C@]3(O)C[C@@H]1NS(=O)(=O)c1ccccc1` [Compound 43, N-((4bR,7S,8aS,9R)-11-(cyclopropylmethyl)-3,8a-dihydroxy-6-oxo-6,7,8,8a,9,10-hexahydro-5H-9,4b-(epiminoethano)phenanthren-7-yl)benzenesulfonamide] were above 200000 nM and 0%.
For `COc1ccc2c(c1)[C@]13CCN(C)[C@H](C2)[C@]1(O)C[C@H](CC(=O)N1CCC(O)CC1)C(=O)C3` [Compound 78, (4bR,7R,8aS,9R)-8a-hydroxy-7-(2-(4-hydroxypiperidin-1-yl)-2-oxoethyl)-3-methoxy-11-methyl-8,8a,9,10-tetrahydro-5H-9,4b-(epiminoethano)phenanthren-6(7H)-one], the results for the EC50 in experiment [2] and in experiment [3] were 10400 ± 4810 nM and above 200000 nM, respectively. The Emax came out at 36.7 ± 9.17% in experiment [2] (relative to DAMGO) and 53.3 ± 1.45% in experiment [3].
For `CN1CC[C@]23CC(=O)[C@@H](CC(=O)N4CCCCC4)C[C@@]2(O)[C@H]1Cc1ccc(O)cc13` [Compound 80, (4bR,7R,8aS,9R)-3,8a-dihydroxy-11-methyl-7-(2-oxo-2-(piperidin-1-yl)ethyl)-8,8a,9,10-tetrahydro-5H-9,4b-(epiminoethano)phenanthren-6(7H)-one] the same measures were 581 ± 22.1 nM, 1200 ± 114 nM, 74 ± 0.58% and 43 ± 1.73%.
Regarding `COc1ccc2c(c1)[C@]13CCN(CC4CC4)[C@H](C2)[C@]1(O)C[C@H](OCC(C)C)C(=O)C3` [Compound 23, (4bR,7S,8aS,9R)-11-(cyclopropylmethyl)-8a-hydroxy-7-isobutoxy-3-methoxy-8,8a,9,10-tetrahydro-5H-9,4b-(epiminoethano)phenanthren-6(7H)-one], the EC50 was 2100 ± 735 nM in experiment [2] and 5560 ± 481 nM in experiment [3]. The “Activity Response μ Emax (%)” value in experiment [2] (relative to DAMGO) is given as 15.7 ± 3.71%. Besides, the “Activity Response κ Emax (%)” value in experiment [3] (relative to U69,593) turned out to be 90.0 ± 1.00%.
On to `O=C(N[C@H]1C[C@@]2(O)[C@H]3Cc4ccc(O)cc4[C@@]2(CCN3CC2CC2)CC1=O)C1CCCCC1` [Compound 38, N-((4bR,7S,8aS,9R)-11-(cyclopropylmethyl)-3,8a-dihydroxy-6-oxo-6,7,8,8a,9,10-hexahydro-5H-9,4b-(epiminoethano)phenanthren-7-yl)cyclohexanecarboxamide], for which the EC50 stood at 10.3 ± 1.72 nM in experiment [2] and 2.3 ± 0.25 nM in experiment [3]. Further, the Emax in experiment [2] (relative to DAMGO) is 40.3 ± 1.45%; in experiment [3], 95.3 ± 5.21%.
Turning to `O=C(N[C@H]1C[C@@]2(O)[C@H]3Cc4ccc(O)cc4[C@@]2(CCN3CC2CC2)CC1=O)C1CC1` [Compound 34, N-((4bR,7S,8aS,9R)-11-(cyclopropylmethyl)-3,8a-dihydroxy-6-oxo-6,7,8,8a,9,10-hexahydro-5H-9,4b-(epiminoethano)phenanthren-7-yl)cyclopropanecarboxamide], the EC50 in experiment [2] was above 200000 nM; in experiment [3] it was 12.6 ± 2.04 nM. The Emax in experiment [2] (relative to DAMGO) is 6.33 ± 2.19%; in experiment [3], 101 ± 3.33%.
As for `O=C(N[C@H]1C[C@@]2(O)[C@H]3Cc4ccc(O)cc4[C@@]2(CCN3CC2CC2)CC1=O)C1CCCC1` [Compound 35, N-((4bR,7S,8aS,9R)-11-(cyclopropylmethyl)-3,8a-dihydroxy-6-oxo-6,7,8,8a,9,10-hexahydro-5H-9,4b-(epiminoethano)phenanthren-7-yl)cyclopentanecarboxamide], the EC50 is above 200000 nM in experiment [2] and 13.6 ± 1.04 nM in experiment [3]. For the same compound, the Emax came out at 2% in experiment [2] (relative to DAMGO) and 85.7 ± 2.4% in experiment [3].
As for `O=C1C[C@]23CCN(CC4CC4)[C@H](Cc4ccc(O)cc42)[C@]3(O)C[C@@H]1CC1CCCC1` [Compound 65, (4bR,7S,8aS,9R)-7-(cyclopentylmethyl)-11-(cyclopropylmethyl)-3,8a-dihydroxy-8,8a,9,10-tetrahydro-5H-9,4b-(epiminoethano)phenanthren-6(7H)-one], the EC50 is above 200000 nM in experiment [2] and 2.57 ± 0.24 nM in experiment [3]. In addition, the Emax in experiment [2] (relative to DAMGO) was 4%; in experiment [3] it was 101 ± 5.51%.
With `CC(C)C[C@H]1C[C@@]2(O)[C@H]3Cc4ccc(O)cc4[C@@]2(CCN3CC2CC2)CC1=O` [Compound 69, (4bR,7S,8aS,9R)-11-(cyclopropylmethyl)-3,8a-dihydroxy-7-isobutyl-8,8a,9,10-tetrahydro-5H-9,4b-(epiminoethano)phenanthren-6(7H)-one], the EC50 was above 200000 nM in experiment [2] and 9.52 ± 1.41 nM in experiment [3]. The Emax came to 2% in experiment [2] (relative to DAMGO) and 95.2 ± 1.89% in experiment [3].
`COc1ccc2c(c1)[C@]13CCN(C)[C@H](C2)[C@]1(O)C[C@H](CC(=O)N1CCOCC1)C(=O)C3` [Compound 79, (4bR,7R,8aS,9R)-8a-hydroxy-3-methoxy-11-methyl-7-(2-morpholino-2-oxoethyl)-8,8a,9,10-tetrahydro-5H-9,4b-(epiminoethano)phenanthren-6(7H)-one]: the results for the EC50 in experiment [2] and in experiment [3] were 11700 ± 3620 nM and above 200000 nM, respectively. In addition, the results for the Emax in experiment [2] (relative to DAMGO) and in experiment [3] were 60 ± 10.2% and 51 ± 0.58%, respectively.
